Data set [1] can be described thus: Dry Sympatec PSD analysis (particle size distribution). Format: physicochemical. The following applies: after isolation. An excerpt:
Particle size or particle diameter as used herein can be suitably determined by laser diffraction based methods, for example as described in ISO Standard 13320-1. Laser diffraction particle sizing apparatus such as the Malvern Mastersizer 2000™ can be used.

A short description of data set [2]: Effect of humidity on prolonged storage: 20% relative humidity for 48 hours; DVS, DSC, TGA, PSD, SEM. Conditions: for DVS mass plot, change of mass during storage: 20% RH, 48 hours; for Particle Size, cumulative distribution Q3 X10, post-storage sample / Particle Size, cumulative distribution Q3 X50, post-storage sample / Particle Size, cumulative distribution Q3 X90, post-storage sample: dry Sympatec PSD. Format: physicochemical. The method, then: In order to evaluate the effect of humidity on prolonged storage, processed BDP heptane solvate was subjected to 20% relative humidity (RH) for 48 hours.
The sample recovered after storage was analysed by DSC, TGA, PSD and SEM.
In order to evaluate the effect of humidity on prolonged storage processed BDP hydrate was subjected to 20% relative humidity (RH) for 48 hours.

The record followed here is patent US20120148638A1, “Steroid Solavates” (BREATH LIMITED, priority 2009, published 2012).

Molecules are shown by their SMILES.

Take `CCC(=O)OCC(=O)[C@@]1(OC(=O)CC)[C@@H](C)C[C@H]2[C@@H]3CCC4=CC(=O)C=C[C@]4(C)[C@@]3(Cl)[C@@H](O)C[C@@]21C.O` [Comparative Example 1, beclomethasone diproprionate, reference compound]: in data set [1], the “Particle Size, cumulative distribution Q3 X10” value was determined as 0.84 μ; the “Particle Size, cumulative distribution Q3 X50” value is recorded as 3.58 μ; the “Particle Size, cumulative distribution Q3 X90” value is listed as 8.76 μ; the “Particle size distribution, result in words” value (“Particle size distribution” below) is on record as “mostly ˜4 μm particles alongside larger clusters or agglomerates larger than 20 μm”.
As for `CCC(=O)OCC(=O)[C@@]1(OC(=O)CC)[C@@H](C)C[C@H]2[C@@H]3CCC4=CC(=O)C=C[C@]4(C)[C@@]3(Cl)[C@@H](O)C[C@@]21C.O` [Comparative Example 2, beclomethasone diproprionate, reference compound], in data set [1], the “Particle Size, cumulative distribution Q3 X10” value amounted to 1.78 μ; the “Particle Size, cumulative distribution Q3 X50” value was 8.10 μ; the “Particle Size, cumulative distribution Q3 X90” value is reported as 15.10 μ.
For the compound `CCC(=O)OCC(=O)[C@@]1(OC(=O)CC)[C@@H](C)C[C@H]2[C@@H]3CCC4=CC(=O)C=C[C@]4(C)[C@@]3(Cl)[C@@H](O)C[C@@]21C.O` [Example 1, beclomethasone diproprionate], in data set [2] (listed as processed BDP heptane), the “DVS mass plot, change of mass during storage” value is given as “maintained full stability in terms of change of mass”. In data set [2] (after 20% RH for 48 hours), the “Particle Size, cumulative distribution Q3 X10, post-storage sample” value is 0.68 μ; the “Particle Size, cumulative distribution Q3 X50, post-storage sample” value turned out to be 2.44 μ; the “Particle Size, cumulative distribution Q3 X90, post-storage sample” value amounted to 5.29 μ. For the same compound, the “DSC trace of stored sample, thermal behaviour post-humidity treatment” value in data set [2] (after 20% RH for 48 hours, listed as BDP heptane solvate) was “no variation in the thermal behaviour”. Also, in data set [1], the “Particle Size, cumulative distribution Q3 X10” value is recorded as 0.69 μ; the “Particle Size, cumulative distribution Q3 X50” value is listed as 2.41 μ; the “Particle Size, cumulative distribution Q3 X90” value was determined as 4.67 μ; the “Particle size distribution” value is given as “within the inhalation range”.
In the case of `CCC(=O)OCC(=O)[C@@]1(OC(=O)CC)[C@@H](C)C[C@H]2[C@@H]3CCC4=CC(=O)C=C[C@]4(C)[C@@]3(Cl)[C@@H](O)C[C@@]21C.O` [Example 3, beclomethasone diproprionate], the “Time to steady state of sample mass (DVS)” value in data set [2] (20% RH storage) was “about 1500 minutes”. The “DVS mass plot, change of mass during storage” value in data set [2] is “initially underwent considerable weight loss due to partial dehydration”. Also, in data set [2] (after 20% RH for 48 hours), the “DSC trace of stored sample, thermal behaviour post-humidity treatment” value is “no variation in the thermal behavior”; the “PSD variation of particle size after storage” value is recorded as “no significant variation of particle size”; the “Particle Size, cumulative distribution Q3 X10, post-storage sample” value turned out to be 0.51 μ; the “Particle Size, cumulative distribution Q3 X50, post-storage sample” value was 1.37 μ. The “Particle Size, cumulative distribution Q3 X90, post-storage sample” value in data set [2] (after 20% RH for 48 hours) is given as 2.95 μ. In addition, in data set [1], the “Particle Size, cumulative distribution Q3 X10” value is 0.51 μ; the “Particle Size, cumulative distribution Q3 X50” value is 1.35 μ; the “Particle Size, cumulative distribution Q3 X90” value is on record as 3.17 μ; the “Particle size distribution” value is reported as “well within the inhalation range”.
